Test results: ChEMBL document CHEMBL5033993, “Design, Synthesis, and Evaluation of o-(Biphenyl-3-ylmethoxy)nitrophenyl Derivatives as PD-1/PD-L1 Inhibitors with Potent Anticancer Efficacy In Vivo” (J Med Chem, 2021)
Calls of active or inactive are those of the source. The rule behind the calls is not given here.

Key:
[1] = biological target: T1, Programmed cell death protein 1/Programmed cell death 1 ligand 1 (Homo sapiens, UniProt Q15116+Q9NZQ7); assay: Potency index, ratio of BMS-202 IC50 to test compound IC50 for inhibition of human PD-1/PD-L1 interaction assessed as disruption of PD-1/PD-L1 complex incubated for 2 hrs by Tag-1 Eu3+ and anti-Tag2-XL665 based HTRF assay; format: protein-complex assay
T1 sequence (Q15116 whole entry): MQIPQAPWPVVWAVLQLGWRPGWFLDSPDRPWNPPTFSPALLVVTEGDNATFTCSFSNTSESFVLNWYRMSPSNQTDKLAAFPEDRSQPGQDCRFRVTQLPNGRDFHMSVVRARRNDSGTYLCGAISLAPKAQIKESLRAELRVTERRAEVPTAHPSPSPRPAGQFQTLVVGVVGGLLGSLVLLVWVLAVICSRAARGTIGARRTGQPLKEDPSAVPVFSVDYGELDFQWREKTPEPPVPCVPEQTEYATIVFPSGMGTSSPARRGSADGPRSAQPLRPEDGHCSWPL
T1 sequence (Q9NZQ7 whole entry): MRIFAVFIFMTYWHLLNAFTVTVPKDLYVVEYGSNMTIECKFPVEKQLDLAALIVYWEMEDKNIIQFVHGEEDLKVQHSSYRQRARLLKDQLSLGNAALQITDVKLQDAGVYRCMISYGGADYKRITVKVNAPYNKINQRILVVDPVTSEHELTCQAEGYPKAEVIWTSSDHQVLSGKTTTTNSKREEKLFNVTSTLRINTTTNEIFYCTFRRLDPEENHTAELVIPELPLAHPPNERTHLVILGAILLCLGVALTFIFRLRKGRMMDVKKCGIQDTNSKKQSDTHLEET

[2] = Cytotoxicity against mouse lewis lung carcinoma cells assessed as reduction in cell viability at 0.3 to 3000 nM and measured after 24 to 72 hrs by MTT assay; format: cell-based; details: 3 µM, dose lower 0.3 nM, time lower 24 hrs, dose upper 3000 nM, time upper 72 hrs
Lewis lung carcinoma [3] = assay: Immunostimulatory activity in mouse lewis lung carcinoma cells allografted in C57BL6 mouse assessed as increase in infiltration of IFNgamm+/CD4+ cells at 2 to 5 mg/kg, ig for 21 days by Flow cytometric analysis; format: functional, organism-based; details: dose 2-5 mg/kg, time 21.0 day
Lewis lung carcinoma [4] = assay: Anti-tumor activity against mouse lewis lung carcinoma cells allografted in C57BL6 mouse assessed as reduction PCNA protein expression level at 2 to 5 mg/kg, ig for 21 days by immunohistochemistry analysis; format: functional, organism-based; details: dose 2-5 mg/kg, time 21.0 day
Mus musculus [5] = assay: Toxicity in C57BL6 mouse allografted with mouse lewis lung carcinoma cells assessed as reduction body weight at 2 mg/kg, ig for 21 days; format: organism-based; details: in vivo, po, 504 h, time 21 day
Lewis lung carcinoma [6] = assay: Anti-tumor activity against mouse lewis lung carcinoma cells allografted in C57BL6 mouse assessed as reduction in tumor growth at 2 to 5 mg/kg, ig for 21 days; format: functional, organism-based; details: dose 2-5 mg/kg, time 21.0 day
[7] = biological target: Programmed cell death 1 ligand 1 (Mus musculus) (UniProt Q9EP73); assay: Binding affinity to PDL1 in mouse lewis lung carcinoma cells assessed as thermal stability at 3 nM at 43 to 70 degC after 12 hrs by CESTA analysis; details: Lewis lung carcinoma cell line
Programmed cell death 1 ligand 1 (Mus musculus), sequence (Q9EP73 whole entry): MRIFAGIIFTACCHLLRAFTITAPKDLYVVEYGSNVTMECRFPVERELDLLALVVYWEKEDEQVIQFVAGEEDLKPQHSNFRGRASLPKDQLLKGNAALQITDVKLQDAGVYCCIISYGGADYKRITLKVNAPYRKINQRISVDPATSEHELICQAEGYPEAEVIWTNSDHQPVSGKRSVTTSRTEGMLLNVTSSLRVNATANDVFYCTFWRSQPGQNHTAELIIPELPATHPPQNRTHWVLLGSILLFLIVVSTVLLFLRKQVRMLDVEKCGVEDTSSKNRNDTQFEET

[8] = Anti-tumor activity against mouse lewis lung carcinoma cells allografted in C57BL6 mouse assessed as reduction in tumor growth at 2 mg/kg, ig for 21 days relative to control; format: functional; details: po, 504 h, time 21 day, read-out: TGI
Mus musculus [9] = assay: Upregulation of IFNgamma protein expression in C57BL6 mouse serum allografted with mouse lewis lung carcinoma cells at 2.5 to 5 mg/kg, ig for 21 days by ELISA; format: functional, organism-based; details: dose 2.5-5 mg/kg, time 21.0 day
Mus musculus [10] = assay: Toxicity in C57BL6 mouse allografted with mouse lewis lung carcinoma cells assessed as reduction body weight at 5 mg/kg, ig for 21 days; format: organism-based; details: in vivo, po, 504 h, time 21 day
Lewis lung carcinoma [11] = assay: Immunostimulatory activity in mouse lewis lung carcinoma cells allografted in C57BL6 mouse assessed as increase in infiltration of total immune cells at 2 to 5 mg/kg, ig for 21 days by Flow cytometric analysis; format: functional, organism-based; details: dose 2-5 mg/kg, time 21.0 day
Lewis lung carcinoma [12] = assay: Immunostimulatory activity in mouse lewis lung carcinoma cells allografted in C57BL6 mouse assessed as increase in infiltration of CD8+ cells at 2 to 5 mg/kg, ig for 21 days by Flow cytometric analysis; format: functional, organism-based; details: dose 2-5 mg/kg, time 21.0 day
T-cell [13] = assay: Cytotoxicity against C57BL6 mouse lymphnode T cell cells assessed as reduction in cell viability at 3000 nM and measured after 24 to 72 hrs by MTT assay; format: cell-based; details: 3 µM, time 24-72 hrs
Lewis lung carcinoma [14] = assay: Induction of apoptosis in mouse lewis lung carcinoma cells allografted in C57BL6 mouse assessed as Increase in TUNEL positive cells at 2 to 5 mg/kg, ig for 21 days by TUNEL assay; format: functional, organism-based; details: dose 2-5 mg/kg, time 21.0 day
PBMC [15] = assay: Upregulation of IFNgamma protein expression in CD3/CD28/PD-L1 stimulated PBMC (unknown origin) at 0.3 to 30 nM by ELISA; format: functional, tissue-based; details: Homo sapiens, dose 0.3-30 nM
T-cell [16] = assay: Upregulation of IFNgamma protein expression in CON-A stimulated C57BL6 mouse lymphnode T cell co-cultured with Lewis lung carcinoma cell line at 0.3 to 30 nM by ELISA; format: functional, tissue-based; details: dose 0.3-30 nM
[17] = Anti-tumor activity against mouse lewis lung carcinoma cells allografted in C57BL6 mouse assessed as reduction in tumor growth at 5 mg/kg, ig for 21 days relative to control; format: functional; details: po, 504 h, time 21 day, read-out: TGI
[18] = biological target: T1, Programmed cell death protein 1/Programmed cell death 1 ligand 1; assay: Inhibition of human PD-1/PD-L1 interaction assessed as disruption of PD-1/PD-L1 complex incubated for 2 hrs by Tag-1 Eu3+ and anti-Tag2-XL665 based HTRF assay; format: protein-complex assay
[19] = biological target: Programmed cell death 1 ligand 1 (Mus musculus) (UniProt Q9EP73); assay: Binding affinity to PDL1 in mouse lewis lung carcinoma cells assessed as thermal stability at 0.1 to 100 nM at 58 degC after 12 hrs by CESTA analysis; format: tissue-based; details: Lewis lung carcinoma cell line, dose 0.1-100 nM
Lewis lung carcinoma [20] = assay: Immunostimulatory activity in mouse lewis lung carcinoma cells allografted in C57BL6 mouse assessed as increase in infiltration of T cells at 2 to 5 mg/kg, ig for 21 days by Flow cytometric analysis; format: functional, organism-based; details: dose 2-5 mg/kg, time 21.0 day
PBMC [21] = assay: Induction of immuno-regulatory activity in CD3/CD28/PD-L1 stimulated PBMC (unknown origin) at 0.3 to 30 nM by Western blot analysis; format: functional, tissue-based; details: Homo sapiens, dose 0.3-30 nM
Lewis lung carcinoma [22] = assay: Immunostimulatory activity in mouse lewis lung carcinoma cells allografted in C57BL6 mouse assessed as increase in infiltration of CD8+/CD45+/CD3+ cells at 2 to 5 mg/kg, ig for 21 days by Flow cytometric analysis; format: functional, organism-based; details: dose 2-5 mg/kg, time 21.0 day

**Q.** For `Cc1c(COc2cc(OCc3cccc(C#N)c3)c(CN[C@H](C(=O)O)[C@@H](C)O)cc2[N+](=O)[O-])cccc1-c1ccccc1`, which Ratio IC50 [1] is on record?
**A.** 25

**Q.** And the Activity [2]?
**A.** Non-Toxic

**Q.** What about the Activity (Lewis lung carcinoma [3]) of the same molecule?
**A.** Active

**Q.** What about the Activity (Lewis lung carcinoma [4]) of the same molecule?
**A.** Dose-Dependent Effect

**Q.** What about the Activity (Mus musculus [5]) of the same molecule?
**A.** Non-Toxic

**Q.** What about the TGI (Lewis lung carcinoma [6]) of the same molecule?
**A.** Dose-Dependent Effect

**Q.** And the Activity [7]?
**A.** Active

**Q.** What about the inhibition in vivo at 2 mg/kg [8] of the same molecule?
**A.** 17.3%

**Q.** What about the Activity (Mus musculus [9]) of the same molecule?
**A.** Dose-Dependent Effect

**Q.** What about the Activity (Mus musculus [10]) of the same molecule?
**A.** Non-Toxic

**Q.** What about the Activity (Lewis lung carcinoma [11]) of the same molecule?
**A.** Active

**Q.** And the Activity (Lewis lung carcinoma [12])?
**A.** Active

**Q.** And the Activity (T-cell [13])?
**A.** Non-Toxic

**Q.** And the Activity (Lewis lung carcinoma [14])?
**A.** Dose-Dependent Effect

**Q.** And the Activity (PBMC [15])?
**A.** Dose-Dependent Effect

**Q.** And the Activity (T-cell [16])?
**A.** Dose-Dependent Effect

**Q.** And the inhibition in vivo at 5 mg/kg [17]?
**A.** 48.5%

**Q.** And the IC50 [18]?
**A.** 2.7 nM

**Q.** What about the Activity [19] of the same molecule?
**A.** Dose-Dependent Effect

**Q.** And the Activity (Lewis lung carcinoma [20])?
**A.** Active

**Q.** What about the Activity (PBMC [21]) of the same molecule?
**A.** Dose-Dependent Effect

**Q.** What about the Activity (Lewis lung carcinoma [22]) of the same molecule?
**A.** Active
